Measurements: patent publication US20180161449A1 (OCULIS EHF, priority 2015, published 2018)

Experiments:
[1] = type: physicochemical
Experimental: An excess amount of drug was added to aqueous solutions containing up to 20% (w/v) cyclodextrin. The solutions were sonicated at 40-50° C. for 45-60 minutes in sealed glass vials, and then allowed to cool to room temperature (22-23° C.). Small amount of solid drug was then added to each vial, the vial resealed and allowed to equilibrate under constant agitation and protected from light for 7 days at room temperature. When the solutions had reached equilibrium, they were filtered through a 0.45 μm membrane filter and analyzed by high pressure liquid chromatography. […] The complexation efficiency (CE) was determined from the slope of phase-solubility diagrams (plots of total solubility of the drug versus total CD concentration in mol/l) where S0 is the intrinsic solubility of the drug:
The mobile phase consisted of acetonitrile, methanol and water (60:20:20), the flow rate was 1 ml/min, the column oven temperature was 80° C. and the detection wavelength was 205 nm.

[2] = pure water at room temperature; cited from earlier work

CE (complexation efficiency) [1] | Solubility in the presence of 5% (w/v) cyclodextrin [1] | Molecule | Solubility in the presence of 15% (w/v) cyclodextrin [1] | Solubility of the cyclodextrin in pure water [2]
0.031 | 84 µg/mL | 2-Hydroxypropyl-α-cyclodextrin | 460 µg/mL | 
0.0011 |  | 2-Hydroxypropyl-γ-cyclodextrin |  | 

More lines, now with the values behind:

Molecule | CE (complexation efficiency) [1] | Solubility in the presence of 5% (w/v) cyclodextrin [1] | Solubility in the presence of 15% (w/v) cyclodextrin [1] | Solubility of the cyclodextrin in pure water [2]
OC[C@H]1O[C@@H]2O[C@H]3[C@H](O)[C@@H](O)[C@@H](O[C@H]4[C@H](O)[C@@H](O)[C@@H](O[C@H]5[C@H](O)[C@@H](O)[C@@H](O[C@H]6[C@H](O)[C@@H](O)[C@@H](O[C@H]7[C@H](O)[C@@H](O)[C@@H](O[C@H]1[C@H](O)[C@H]2O)O[C@@H]7CO)O[C@@H]6CO)O[C@@H]5CO)O[C@@H]4CO)O[C@@H]3CO [α-Cyclodextrin] | 0.54 |  | 4200 µg/mL | 
OC[C@H]1O[C@@H]2O[C@H]3[C@H](O)[C@@H](O)[C@@H](O[C@H]4[C@H](O)[C@@H](O)[C@@H](O[C@H]5[C@H](O)[C@@H](O)[C@@H](O[C@H]6[C@H](O)[C@@H](O)[C@@H](O[C@H]7[C@H](O)[C@@H](O)[C@@H](O[C@H]8[C@H](O)[C@@H](O)[C@@H](O[C@H]1[C@H](O)[C@H]2O)O[C@@H]8CO)O[C@@H]7CO)O[C@@H]6CO)O[C@@H]5CO)O[C@@H]4CO)O[C@@H]3CO [β-Cyclodextrin] | 0.030 |  |  | 2 % (w/v)
OC[C@H]1O[C@@H]2O[C@H]3[C@H](O)[C@@H](O)[C@@H](O[C@H]4[C@H](O)[C@@H](O)[C@@H](O[C@H]5[C@H](O)[C@@H](O)[C@@H](O[C@H]6[C@H](O)[C@@H](O)[C@@H](O[C@H]7[C@H](O)[C@@H](O)[C@@H](O[C@H]8[C@H](O)[C@@H](O)[C@@H](O[C@H]9[C@H](O)[C@@H](O)[C@@H](O[C@H]1[C@H](O)[C@H]2O)O[C@@H]9CO)O[C@@H]8CO)O[C@@H]7CO)O[C@@H]6CO)O[C@@H]5CO)O[C@@H]4CO)O[C@@H]3CO [γ-Cyclodextrin] | 0.0049 |  |  | 
Randomly methylated β-cyclodextrin | 0.053 | 130 µg/mL |  | 
